Results from publication PMC8510344, “Bile-Acid-Appended Triazolyl Aryl Ketones: Design, Synthesis, In Vitro Anticancer Activity and Pharmacokinetics in Rats” (Molecules, 2021).
“And” between values parts separate entries of the source, which are not always exact repeats. Identical values can stand only once. Like-named read-outs stand apart in the source and are kept apart here.

Legend:
[1] = MTT cytotoxicity assay, normal cell line HEK 293; type: cell-based; details: human, HEK 293 cells, HEK 293 normal cells, 48 h exposure
Experimental: (§1) The cytotoxicity activity of all the conjugates (6aa–6df) was evaluated in vitro by MTT assay against two different breast cancer cell lines 4T1 (murine) and MCF-7 (human) and HEK 293 (human) as normal cell line. DTX was used as positive control. Cells were grown in DMEM supplemented with 10% FBS and 1% antibiotic solution and incubated at 5% CO2 and 37 °C for 24 h. The stock solutions of all the conjugates were prepared in DMSO and diluted for further use. Briefly, 5 × 10^3 cells/well were seeded in 96-well cell culture plates and allowed to adhere for 24 h. Cell inhibition (%) was determined after 48 h exposure to the compounds at 1–25 μM concentration. After 48 h, MTT assay was performed and the yellow tetrazolium salt (MTT) was reduced in metabolically active cells to form insoluble purple formazan crystals, which were solubilized by the addition of DMSO. The optical density (OD) was recorded at 560 nm and 630 nm as reference wavelength. Percentage cell inhibition was determined by comparison with untreated cells.

[2] = tested on: MCF-7 cells; assay: Annexin V/PI apoptosis assay by flow cytometry, MCF-7; type: cell-based, human; details: 6af at 2.61 µM, 6cf at 5.71 µM (respective IC50), 48 h
Experimental: (§2) The extent of apoptosis induced by compounds 6af and 6cf in MCF-7 and 4T1 cells was quantified by flow cytometry according to the manufacturer’s protocol. Briefly, cells were seeded in a 6-well plate at a cell density of 1 × 10^6 cells/well. After 24 h, the media was discarded and cells were treated with fresh media containing compounds 6af and 6cf at their respective IC50 concentrations for 48 h. After treatment, cells were trypsinized, harvested in PBS and collected by centrifugation for 5 min at 2000 rpm. Cells were then resuspended in 1X binding buffer and stained with FITC-labeled Annexin V Alexa Fluor 488 (5 μL) and propidium iodide (10 μL). Cells were analyzed using flow cytometer (Beckman Coulter), and data were analyzed with CytExpert software.

[3] = tested on: 4T1 cells; assay: Annexin V/PI apoptosis assay by flow cytometry, 4T1; type: cell-based, mouse; details: 6af at 12.84 µM, 6cf at 8.76 µM (respective IC50), 48 h
Experimental: as §2

[4] = tested on: 4T1 (mouse mammary carcinoma) cells; assay: MTT cytotoxicity assay, 4T1; type: cell-based; details: Mus musculus, 10 µM, 48 h exposure, read-out: % Cell Viability at 10 µM 4T1
Experimental: as §1

[5] = tested on: MCF-7 (human breast adenocarcinoma) cells; assay: MTT cytotoxicity assay, MCF-7; type: cell-based; details: Homo sapiens, MCF7, 10 µM, 48 h exposure, read-out: % Cell Viability at 10 µM MCF-7
Experimental: as §1

[6] = Pharmacokinetic study in Wistar rats, i.v. bolus; type: in vivo; details: rat plasma, 10 mg/kg i.v. bolus
Experimental: Wistar rats (male; 8–10 weeks, 200–240 g) were procured from Central Animal Facility, BITS Pilani (Pilani, India). Animal experiment protocol was approved by Institutional Animal Ethics Committee (IAEC/RES/24/03), BITS Pilani, Pilani, and all experiments were conducted as per CPCSEA guidelines. Rats were housed in well-ventilated cages at standard laboratory conditions with regular light/dark cycles for 12 h and fed with standard normal diet ab libitum.
The pharmacokinetic study of 6cf was performed on Wistar rats. 6cf solution (prepared in normal saline with 5% w/v tween 80) was administered intravenously at the dose of 10 mg/kg with maximum dosing volume of 300 µL to each rat without fasting (n = 4). After i.v. dosing, blood samples were collected for each preset time point at 10, 20, 30, 50 min, 1.5, 2, 4, 6, 8, 12 and 24 h. 6cf plasma concentration–time profile was plotted and analyzed by non-compartmental model approach using Phoenix 2.1 WinNonlin (Pharsight Corporation, USA) to determine t1/2, elimination half-life; C0, drug concentration in plasma at t = 0; AUC0-t, area under curve from zero to the last time point; AUC0–∞, area under curve from zero to infinity; and MRT, mean residence time.
A simple liquid–liquid extraction (LLE) method was used for extraction of 6cf from the rat plasma. A 200 µL aliquot of plasma sample containing 6cf was taken in 5 mL glass tube, followed by the addition of 100 µL of internal standard (I.S.) (clobetasol, 2 µg/mL) solution. Samples were vortexed for 1 min, and then 2 mL of ethyl acetate was added as extracting solvent. The samples were vortexed for 5 min and centrifuged at 5000 rpm for 15 min at 4 °C. The organic layer was collected and evaporated to dryness at 40 ± 0.5 °C. The residue was reconstituted with 250 µL of mobile phase and vortexed for 1 min. Finally, 150 µL of sample was injected into HPLC for quantification.
A Thermo Fisher Rapid Separation (RS) UHPLC System (Ultimate 3000) equipped with a pump (LPG-3400SD), Diode Array Detector (DAD) (DAD-3000) and autosampler (ACC-3000T) with 250 µL injection loop was used for purity analysis. The UHPLC system was equilibrated for approximately 40 min before beginning the sample analysis. Column temperature was 35° throughout the analysis. 6cf and I.S. were separated on Intersil® ODS (C18) column (250 × 4.6 mm, 5µm) with a mobile phase consisting of acetonitrile:water (60:40 % v/v) run in isocratic mode at a flow rate of 1 mL/min, detection wavelength 259 nm and injection volume of 150 µL. […] Control of hardware and data handling was performed using Chromeleon software version 7.2 SR4.

[7] = tested on: Human prostate cancer cell line (PC-3); design: method as in PMID 23884119, PMID 25476168, PMID 30220830, PMID 23584541, PMID 28158265; details: literature example of Figure 1; cited from earlier work
[8] = tested on: leukemia cell line (Jurkat); design: method as in doi:10.1039/c3nj00513e; details: cited from earlier work
[9] = tested on: leukemia cell line (K562); details: cited from earlier work
[10] = tested on: Lymphoblastic leukemia cell line (CCRF-CEM); design: method as in PMID 23291595; details: cited from earlier work

C[C@H](CCC(=O)NCc1cn(CC(=O)c2ccc(Br)cc2)nn1)C1CCC2C3C(C[C@H](O)[C@@]21C)[C@@]1(C)CC[C@@H](O)CC1C[C@H]3O (stereo partly drawn) [6cf, (4R)-N-((1-(2-(4-Bromophenyl)-2-oxoethyl)-1H-1,2,3-triazol-4-yl)methyl)-4-((3R,7R,10S,12S,13R)-3,7,12-trihydroxy-10,13-dimethylhexadecahydro-1H-cyclopenta[a]phenanthren-17-yl)pentanamide]
viability at 48 h, 10 µM [1]: > 86%
apoptosis (total) in MCF-7 cells [2]: 46.09%
total apoptosis in 4T1 cells [3]: 19.56%
viability at 10 µM [4]: 49.3%
viability at 10 µM [5]: 37.5%
melting point: 144 to 145 °C
C0 ([6]; male, Wistar, iv, conversion of 1752.69 ng/mL, read-out: initial concentration converted to molar): ~2560 nM
AUC(0-t) ([6]; male, Wistar, iv, mean ± SEM, read-out: Area Under the Curve (0 to 12 h), AUC0–last): 2000 ± 87.4 ng·h/mL
AUC(0-inf) ([6]; male, Wistar, iv, mean ± SEM, read-out: Area Under the Curve (0 to infinity), AUC0–∞): 2690 ± 113 ng·h/mL
k el ([6]; male, Wistar, iv, mean ± SEM, read-out: Elimination Rate Constant, Ke (converted)): 3.61e-05 s⁻¹
half-life ([6]; male, Wistar, iv, mean ± SEM, read-out: Half-Life, t1/2 (converted)): 5.63 ± 0.539 h
C0 ([6]; male, Wistar, iv, mean ± SEM, read-out: Initial Concentration, C0): 1750 ± 66.5 ng/mL
MRT ([6]; male, Wistar, iv, mean ± SEM, read-out: Mean Residence Time, MRT): 8.47 ± 0.96 h
Area Under the First Moment Curve (0 to 12 h), AUMC0–last ([6]; mean ± SEM): 8155.94 ± 311.78 ng·h/mL
Area Under the First Moment Curve (0 to infinity), AUMC0–∞ ([6]; mean ± SEM): 22276.39 ± 2023.334 ng·h/mL

CC(=O)c1ccc(OCc2cn(CC(=O)C3CCC4C5CC=C6CC(O)CCC6(C)C5CCC34C)nn2)cc1 (centres unmarked) [I]
IC50 [7]: 0.03 µM

COC(=O)CCC(C)C1CCC2C3C(O)CC4CC(n5cc(CCCC#Cc6nc7c(N)ncnc7n6C6CC(O)C(CO)O6)nn5)CCC4(C)C3CCC12C (centres unmarked) [VII]
IC50 [8]: 10.5 ± 2.64 µM
IC50 [9]: 8.51 µM and 8.5 µM

CC(CCn1cc(CCCCC#Cc2nc3c(N)ncnc3n2C2CC(O)C(CO)O2)nn1)C1CCC2C3C(O)CC4CC(O)CCC4(C)C3CCC12C (centres unmarked) [VI]
IC50 [9]: 16.2 ± 2.2 µM

CC(CCC(=O)OCc1cn(Cc2cccc(Cn3cc(COC(=O)CCC(C)C4CCC5C6C(O)CC7CC(O)CCC7(C)C6CC(O)C45C)nn3)n2)nn1)C1CCC2C3C(O)CC4CC(O)CCC4(C)C3CC(O)C12C (centres unmarked) [V]
IC50 [10]: 3.98 µM
